Source: patent publication US20070009544A1, “Anti-allergic complex molecules” (priority 1999, published 2007)
Values after ≈ are worked out from the molar mass of the structure shown. Numbered stars: 1 amine (or outer) side, 2 acyl side, 3 side chain; on linkers, the order of the positions; unused ones are H or OH. Square brackets hold non-standard residues; d marks the D form. Ends that are not written are not given here. Peptide text beside a SMILES is read from it. Suc = O=C(CCC(=O)[*:2])[*:1]; Sar = CNCC(=O)O

Tests used:
[1] = system: purified rat peritoneal mast cells; assay type: cell-based; conditions: for maximal inhibition of compound 48/80 induced histamine secretion: 600 μg/ml peptide, compound 48/80 concentration not given; for Inhibitor (extent of inhibition of histamine secretion from mast cells): Table 9
Procedure: 37° C. […] Each data point represents the average of duplicate measurements. The spontaneously released histamine was subtracted.
First, the effect of compound 48/80 on exocytosis from intact mast cells was determined. […] Histamine release was determined and is presented as the net secretion that is % of the total cellular histamine following subtraction of the spontaneously released histamine. Half-maximal release was obtained at 0.1 μg/ml while maximal release was obtained at 1-10 μg/ml. Accordingly, in order to analyze the potential of each peptide to block histamine secretion, histamine secretion was induced with 5 μg/ml compound 48/80, a concentration that induces a maximal histamine release, while the cells were incubated in the presence of increasing concentrations of each peptide.
In order to investigate the ability of these peptides to block allergen-induced exocytosis, the peptides were examined for their ability to block compound 48/80 induced histamine secretion from intact mast cells in vitro. Mast cells were incubated with different concentrations of each peptide, followed by induction of histamine secretion by compound 48/80.

[2] = system: purified rat peritoneal mast cells; experiment: Histamine secretion from intact mast cells incubated with peptide alone (secretagogue side effect); conditions: for Secretagogue (histamine secretion following incubation of mast cell with different concentrations of each peptide): no allergen; for histamine secretion from mast cells on incubation with increasing concentrations of peptide alone: no additional allergen
Procedure: Mast cells from the peritoneal cavity of C.R rats were isolated in Tyrode buffer (137 mM NaCl, 2.7 mM KC1, 1 mM MgCl2, 0.4 mM NaH2PO4, 20 mM Hepes, 1.0 mM CaCl2, 5.6 mM glucose, 1 mg/ml BSA, pH 7.2) and purified over a Ficoll gradient. A suspension of washed peritoneal cells was placed over a cushion of 30% Ficoll 400 (Pharmacia Biotech.) in buffered Saline containing 0.1% BSA; and centrifuged at 150O×g for 15 min. The purity of mast cells recovered from the bottom of the tube was >90%, as assessed by toluidine blue staining.
Purified mast cells (duplicated of 10^5 cells/0.5 ml) were incubated in Tyrode buffer with buffer or with desired concentrations of the indicated peptide for 2 h. at. 37° C. Histamine secretion was subsequently stimulated by the indicated concentration of compound 48/80 (Sigma) dissolved in Tyrode buffer. Incubation with compound 48/80 was carried out for 20 mm.in at 37° C. The reaction was terminated by placing the tubes on ice. The cells were sedimented by centrifugation at 150×g for 5 mm.in and the supernatants were collected. The amount of histamine release was determined as previously described (Aridor et al., 1990). Briefly, cell pellets were lysed using 0.1N NaOH and the volume of each sample was adjusted to 0.5 ml by H2O. Histamine content was assayed using the o-phtalaldehyde (OPT) fluorimetric method (Shore et al., 1959). Aliquots of 0.4 ml from the supernatants and cell lysates were incubated with 1.6 ml H20, 0.4 ml 1N NaOH and 0.1 ml of 10 mg/l ml OPT in methanol, for 4 min at room temperature. The reaction was terminated by the addition of 0.2 ml 3N HCl. Samples were centrifuged at 150×g for 5 min. and 0.2 ml samples were transferred to a 96 well plate. The histamine spectrofluorometric assay was run in microplates using a microplates reader (FL-600, Biotek instruments Winooski, Vt., USA). Samples were excited by light at 340 nm and read at 440 nm. Histamine release was calculated as the percentage of total histamine content (supernatant/pellet+supernatant) in each sample. Each data point represents the average of duplicate measurements. The spontaneously released histamine was subtracted.

[3] = system: abdominal skin of C.R rats; experiment: Rat skin test: intradermal injection of peptide, then intradermal compound 48/80 or vehicle, wheal area; assay type: in vivo; conditions: for Mean Wheal Area ± STD, Compound 48/80: 0.5 hour before allergic induction; for Mean Wheal Area ± STD, Vehicle: 0.5 hour before, vehicle instead of compound 48/80
Procedure: The hair of the abdominal area of C.R rats was carefully removed with an electric clipper and a depilatory cream. In each animal the abdominal area was divided to six equal zones that were marked by pen. Each zone was either subjected to peptide treatment or served as a control. In the first set of experiments, the peptide was topically applied as follows: 36 μl of peptide solution at the indicated concentration (dissolved in 72% DMSO in saline) was applied on desired abdominal area. In the second set of experiments, the peptide was injected intradermally as follows: 20 μl of peptide solution at different concentrations (dissolved in 10% DMSO in saline) was injected intradermally to an indicated abdominal area using a 27-gauge sterile needle.
Skin tests were performed 0.5, 1 or 2 hours following application of the peptide. Skin tests were performed by injecting intradermally 20 μl of the allergen (0.1 mg/ml compound 48/80 dissolved in saline) or saline alone, into the center of each marked area on the abdominal skin using a 27-gauge sterile needle. The allergic response was monitored by outlining with a marker the wheals which developed in response to allergen or saline treatment.
To quantitate the skin test results, the marker signs were transferred onto paper with scotch tape. The areas of the wheals were outlined and calculated by a computerized planimeter (Hewlett-Packard), as previously described (Sussman et al., 1982).
Tables 10-16 presents the mean areas of the wheals, which developed in response to intradermal injection of each of the tested peptides, followed by either compound 48/80 or DDW injection applied after 0.5 or 1 hour. Two doses were tested for each peptide-20 and 200 μg (injection of 20 μl from a stock solution of 1 mg/ml or 10 mg/m respectively).
Skin tests on rats using compound 48/80 as the allergen assessed the ability of the peptides of the present invention to block allergic cutaneous reactions. The abdominal skin of the rats was subjected to peptide (indicated concentrations are listed in Tables 17A-17B below) or vehicle treatment (intradermal injection); the allergic response was induced by intradermal injection of compound 48/80 at various times; and the allergic response was quantified by calculating the area of the resultant allergic wheals.

[4] = incubation with different concentrations of each peptide, then induction of the allergic reaction

CC(C)C[C@H](NC(=O)CNC(=O)[C@H](CS)NC(=O)[C@H](CC(=O)O)NC(=O)[C@H](CCCCN)NC(=O)[C@H](CC(C)C)NC(=O)[C@H](CC(N)=O)NC(=O)[C@H](CCC(=O)O)NC(=O)[C@H](CCCCN)NC(=O)[C@@H]1CCCN1C(=O)[C@H](C)NC(=O)[C@H](CC(C)C)NC(=O)[C@H](CC(C)C)NC(=O)[C@H](C)NC(=O)[C@H](CC(C)C)NC(=O)[C@H](CC(C)C)NC(=O)[C@@H](NC(=O)[C@H](C)NC(=O)[C@@H]1CCCN1C(=O)[C@H](CC(C)C)NC(=O)[C@H](CC(C)C)NC(=O)[C@H](C)NC(=O)[C@@H](NC(=O)[C@H](C)NC(=O)[C@H](C)NC(=O)CCC(=O)O)C(C)C)C(C)C)C(=O)N[C@@H](Cc1ccccc1)C(=O)O [Peptide 5-Suc] (Suc-AAVALLPAVLLALLAPKENLKDCGLF-OH; C-terminus assumed) was tested, and the “Inhibitor (degree of inhibition of histamine secretion from mast cells)” value ([1]; Table 1, incubation with different concentrations of each peptide, then induction of the allergic reaction) was “− (− No inhibition)”, the “Secretagogue (histamine secretion following incubation of mast cell with different concentrations of each peptide)” value ([2]; Table 1, peptide alone) was “+” and the “histamine secretion from mast cells on incubation with increasing concentrations of peptide alone” value [2] was “induced histamine secretion from mast cells in a concentration dependent manner”.

In the case of CC(C)C[C@H](NC(=O)CNC(=O)[C@H](CS)NC(=O)[C@H](CCC(=O)O)NC(=O)[C@H](CCCCN)NC(=O)[C@H](CC(C)C)NC(=O)[C@H](CC(N)=O)NC(=O)[C@H](CC(N)=O)NC(=O)[C@H](CCCCN)NC(=O)CN(C)C(=O)[C@H](C)NC(=O)[C@H](CC(C)C)NC(=O)[C@H](CC(C)C)NC(=O)[C@H](C)NC(=O)[C@H](CC(C)C)NC(=O)[C@H](CC(C)C)NC(=O)[C@@H](NC(=O)[C@H](C)NC(=O)[C@@H]1CCCN1C(=O)[C@H](CC(C)C)NC(=O)[C@H](CC(C)C)NC(=O)[C@H](C)NC(=O)[C@@H](NC(=O)[C@H](C)NC(=O)[C@H](C)NC(=O)CCC(=O)O)C(C)C)C(C)C)C(=O)N[C@@H](Cc1ccc(O)cc1)C(=O)O [WALL008] (Suc-AAVALLPAVLLALLA[Sar]KNNLKECGLY-OH; C-terminus assumed), the “IC50, compound 48/80 induced histamine secretion” value [1] is reported as 220 µg/mL (≈ 79.9 µM), the “maximal inhibition of compound 48/80 induced histamine secretion” value [1] is reported as 98.7% and the “Inhibitor (extent of inhibition of histamine secretion from mast cells)” value [1, 4] is reported as “+++ (+++ Potent inhibitor (≧80% inhibition))”. For the same compound, the “block of compound 48/80 induced allergic reaction in vivo, rat skin” value ([3]; intradermal peptide) was “effectively block the allergic response in vivo”, the “Mean Wheal Area ± STD, Compound 48/80” value ([3]; intradermal peptide 1 mg/ml) was 104.1 ± 18.5 (n = 4) mm^2 and the “Mean Wheal Area ± STD, Vehicle” value ([3]; intradermal peptide 1 mg/ml) was 79.9 ± 22.3 (n = 4) mm^2. For the same compound, the “Mean Wheal Area ± STD, Compound 48/80” value ([3]; intradermal peptide 10 mg/ml) was 73.7 ± 12.2 (n = 4) mm^2, the “Mean Wheal Area ± STD, Vehicle” value ([3]; intradermal peptide 10 mg/ml) was 72.8 ± 13.6 (n = 4) mm^2 and the “reduction of compound 48/80 induced allergic reaction” value ([3]; intradermal peptide 0.5 hour before allergic induction) was “significant inhibition”. For the same compound, the “Secretagogue (histamine secretion following incubation of mast cell with different concentrations of each peptide)” value ([2]; Table 9, peptide alone) was “−”, the “histamine secretion from mast cells on incubation with increasing concentrations of peptide alone” value [2] was “did not result in histamine secretion” and the “basal level of histamine secretion compared to control cells” value ([2]; peptide alone, increasing concentrations) was “inhibition of the basal level of histamine secretion”.

For CC(C)C[C@H](NC(=O)CNC(=O)[C@H](CS)NC(=O)[C@H](CCC(=O)O)NC(=O)[C@H](CCCCN)NC(=O)[C@H](CC(C)C)NC(=O)[C@H](CC(N)=O)NC(=O)[C@H](CO)NC(=O)[C@H](CCCCN)NC(=O)[C@@H]1CCCN1C(=O)[C@H](C)NC(=O)[C@H](CC(C)C)NC(=O)[C@H](CC(C)C)NC(=O)[C@H](C)NC(=O)[C@H](CC(C)C)NC(=O)[C@H](CC(C)C)NC(=O)[C@@H](NC(=O)[C@H](C)NC(=O)[C@@H]1CCCN1C(=O)[C@H](CC(C)C)NC(=O)[C@H](CC(C)C)NC(=O)[C@H](C)NC(=O)[C@@H](NC(=O)[C@H](C)NC(=O)[C@H](C)NC(=O)CCC(=O)O)C(C)C)C(C)C)C(=O)N[C@@H](Cc1ccc(O)cc1)C(=O)O [WALL011] (Suc-AAVALLPAVLLALLAPKSNLKECGLY-OH; C-terminus assumed), the “IC50, compound 48/80 induced histamine secretion” value [1] was 160 µg/mL (≈ 58.1 µM), the “maximal inhibition of compound 48/80 induced histamine secretion” value [1] was 87% and the “Inhibitor (extent of inhibition of histamine secretion from mast cells)” value [1, 4] was “+++ (+++ Potent inhibitor (≧80% inhibition))”. The “Secretagogue (histamine secretion following incubation of mast cell with different concentrations of each peptide)” value ([2]; Table 9, peptide alone) was “−”, the “histamine secretion from mast cells on incubation with increasing concentrations of peptide alone” value [2] was “did not result in histamine secretion” and the “basal level of histamine secretion compared to control cells” value ([2]; peptide alone at 400-600 μg/ml) was “minor inhibition of the basal level of histamine secretion”.

In the case of AAVALLPAVLLALLAAKNNLKECGLY [WALL004], the “histamine secretion from mast cells, peptide alone” value ([2]; especially at a peptide concentration exceeding 200 μg/ml) is reported as “moderate histamine secretion”.

For AAVALLPAVLLALLAPKENLKDCGLF [Peptide 5], the “Secretagogue (histamine secretion following incubation of mast cell with different concentrations of each peptide)” value ([2]; Table 1, peptide alone) was “−”.

AAVALLPAVLLALLAPKNNLKDCGLF [Peptide 5m] was tested, and the “Secretagogue (histamine secretion following incubation of mast cell with different concentrations of each peptide)” value ([2]; Table 1, peptide alone) was “+” and the “histamine secretion from mast cells on incubation with increasing concentrations of peptide alone” value [2] was “induced histamine secretion from mast cells in a concentration dependent manner”.

With AAVALLPAVLLALLAPKNNLKESGLY [Peptide 25] the “Secretagogue (histamine secretion following incubation of mast cell with different concentrations of each peptide)” value ([2]; Table 1, peptide alone) was “+” and the “histamine secretion from mast cells on incubation with increasing concentrations of peptide alone” value [2] was “induced histamine secretion from mast cells in a concentration dependent manner”.

For AAVALLPAVLLALLAPKQNLKECGLY [WALL006], the “IC50, compound 48/80 induced histamine secretion” value [1] was 560 µg/mL, the “Secretagogue (histamine secretion following incubation of mast cell with different concentrations of each peptide)” value ([2]; Table 9, peptide alone) was “−” and the “histamine secretion from mast cells on incubation with increasing concentrations of peptide alone” value [2] was “did not result in histamine secretion”.

For AAVALLPAVLLALLAPLKDCGLF [Peptide 21], the “histamine secretion from mast cells, peptide alone” value ([2]; at higher doses of 400 and 600 μg/ml) was “induced some histamine secretion”.

In the case of AAVALLPAVLLALLAPLKECGLY [Peptide 20], the “Secretagogue (histamine secretion following incubation of mast cell with different concentrations of each peptide)” value ([2]; Table 1, peptide alone) is reported as “−” and the “histamine secretion from mast cells on incubation with increasing concentrations of peptide alone” value [2] is reported as “did not induce histamine secretion”.

AAVALLPAVLLALLAPYLGCEKLNNK [WALL023] was tested, and the “histamine secretion from mast cells, peptide alone” value ([2]; 600 μg/ml peptide) was “did not result in histamine secretion” and the “Secretagogue (histamine secretion following incubation of mast cell with different concentrations of each peptide)” value ([2]; Table 9, peptide alone) was “−”.

For “KAAVALLPAVLLALLAPKNNLKDCGLF [Peptide 12]”, the “Secretagogue (histamine secretion following incubation of mast cell with different concentrations of each peptide)” value ([2]; Table 1, peptide alone) was “+” and the “histamine secretion from mast cells on incubation with increasing concentrations of peptide alone” value [2] was “induced histamine secretion from mast cells in a concentration dependent manner”.

“KAAVALLPAVLLALLAPKNNLKECGLY [Peptide 13]” was tested, and the “Secretagogue (histamine secretion following incubation of mast cell with different concentrations of each peptide)” value ([2]; Table 1, peptide alone) was “+” and the “histamine secretion from mast cells on incubation with increasing concentrations of peptide alone” value [2] was “induced histamine secretion from mast cells in a concentration dependent manner”.

RQPKIWFPNRRKPWKKKENLKDCGLF [Peptide 6] was tested, and the “histamine secretion from mast cells on incubation with increasing concentrations of peptide alone” value [2] was “induced histamine secretion from mast cells in a concentration dependent manner”.

With RQPKIWFPNRRKPWKKKNNLKECGLY [Peptide 3] the “histamine secretion from mast cells on incubation with increasing concentrations of peptide alone” value [2] was “induced histamine secretion from mast cells in a concentration dependent manner”.

With VTVLALGALAGVGVGKENLKDCGLF [Peptide 4] the “stimulatory effect on histamine secretion” value ([2]; peptide alone, concentration range of up to 400 p.g/ml (FIG. 1A)) was “hardly any stimulatory effect”.
